56 molecules from patent US8796460B2, “Compounds for inhibiting KSP kinesin activity” (Mercky Sharp & Dohme Corp., priority 2007, dated 2014) can be followed below.

Each structure is given as a SMILES string. Some results are limits rather than exact numbers.

The first assay relates to HCT116 colon cancer cells. Description: KSP Cellular Assay (percent of cells staining positive for Phos-Histone H3 / Phos-MPM2). Format: cell-based. The conditions noted are these: Homo sapiens, HCT-116, 16 h, Table 101; HCT116 cells, 16 hours with drug; read-out: ED50 (nM) Range. How it is done: HCT116 colon cancer cells were grown in DMEM:F12 media with 10% heat inactivated FBS at 37 degrees with 5% CO2. Cells were plated at 7,500 cells per well in PDL coated 384-well tissue culture plates. 6 hours later media was removed and new media containing drug was added. Cells were incubated with drug for 16 hours. All further steps were performed at room temperature in the dark. Cells were fixed with 25 ul/well Prefer fixation solution plus 250 nM Hoechst dye and incubated for 30 minutes. The fixation solution was removed and cells were washed with PBS. Cells were then permeabilized with 25 ul/well 0.2% Triton-X in PBS and incubated for 10 minutes. Cells were washed with PBS and then incubated with 25 ul/well PBS containing 3% FBS for 30 minutes. Cells were then stained overnight at 4 degrees with 25 ul/well antibody solution in PBS plus 3% FBS. Antibodies used were Phos-Histone H3 (ser10)-Alexa Flur 488 Conjugate and Phos-MPM2 Texas Red Conjugate. Cells were washed with PBS and then immunofluorescence images captured with HT Pathway microscope. The percent of cells staining positive was calculated and EC50 values for the compounds of the invention that were tested were determined using Excel XLfit.
EC50 Determinations: Dose-response curves were plotted from inhibition data generated each in duplicate, from 8 point serial dilutions of inhibitory compounds. Concentration of compound was plotted against enzyme activity (OD reading). To generate EC50 values, the dose-response curves were then fitted to a standard sigmoidal curve and EC50 values were derived by nonlinear regression analysis.
Take `CC(=O)N1N=C(c2cc(F)ccc2F)SC12CCN(C(C)=S)c1ccccc12` (centres unmarked) [compound 114]: the EC50 was over 1000 nM.

As for `CC(=O)N1N=C(c2cc(F)ccc2F)SC12CCc1ccccc12` (centres unmarked) [compound 105], the EC50 is at most 500 nM. `CC(=O)N1N=C(c2cc(F)ccc2F)SC12CCOc1ccccc12` (centres unmarked) [compound 102]: the EC50 is at most 500 nM. Consider `CC(=O)N1N=C(C2=C(F)CCC(F)=C2)SC12Cc1ccccc12` (centres unmarked) [compound 120], for which the EC50 is at most 500 nM. For `CC(=O)N1N=C(c2cc(F)ccc2F)SC12CC(C)Oc1ccc(F)cc12` (centres unmarked) [compound 115], the EC50 was over 1000 nM. In the case of `CC(=O)N1N=C(c2cc(F)ccc2F)SC12CCCc1sccc12` (centres unmarked) [compound 103], the EC50 was over 1000 nM. As to `CC(=O)N1C(=O)C2(SC(c3cc(F)ccc3F)=NN2C(C)=O)c2ccccc21` (centres unmarked) [compound 128], the EC50 was over 1000 nM.

`CC(=O)N1N=C(c2cc(F)ccc2F)SC12CCSc1ccccc12` (centres unmarked) [compound 104]: the EC50 was over 1000 nM. For `CC(=O)N1N=C(c2cc(F)ccc2F)SC12CC[S+]([O-])c1ccccc12` (centres unmarked) [compound 108], the EC50 is over 1000 nM.

Staying with this assay, now noted: Homo sapiens, HCT-116, 16 h, Table 401; HCT116 cells, 16 hours with drug; read-out: ED50 (nM) Range.
As for `NCC(=O)N1N=C(c2cc(F)ccc2F)SC12CCOc1ccccc12` (centres unmarked) [compound 469], the EC50 was over 1000 nM. `NC(=O)CCC(=O)N1N=C(c2cc(F)ccc2F)SC12CCOc1ccccc12` (centres unmarked) [compound 488]: the EC50 was over 500 nM. Same read-out and setting: to `N[C@H](C(=O)N1N=C(c2cc(F)ccc2F)SC12CCCc1sccc12)C1CC1` (some centres unmarked) [compound 417] belongs over 1000 nM; to `O=C(C1CCCN1)N1N=C(c2cc(F)ccc2F)SC12CCCc1ccccc12` (centres unmarked) [compound 410], over 1000 nM. With `N[C@H]1C[C@@H](C(=O)N2N=C(c3cc(F)ccc3F)SC23CCOc2ccccc23)C1` (some centres unmarked) [compound 499], the EC50 was 500 to 1000 nM. With `NCCCC(=O)N1N=C(c2cc(F)ccc2F)SC12CCOc1ccccc12` (centres unmarked) [compound 434], the EC50 is at most 500 nM. As to `O=C(C1CCNC1)N1N=C(c2cc(F)ccc2F)SC12CCCc1ccccc12` (centres unmarked) [compound 412], the EC50 was over 1000 nM. Same read-out and setting: for `N[C@H]1CC[C@H](C(=O)N2N=C(c3cc(F)ccc3F)SC23CCOc2ccccc23)CC1` (some centres unmarked) [compound 480] the value was over 500 nM. In the case of `N[C@H]1C[C@H](C(=O)N2N=C(c3cc(F)ccc3F)SC23CCOc2ccccc23)C1` (some centres unmarked) [compound 500], the EC50 was over 500 nM. Regarding `O=C([C@@H]1CCCN1)N1N=C(c2cc(F)ccc2F)SC12CCCc1ccsc12` (some centres unmarked) [compound 427], the EC50 was over 1000 nM. As to `O=C(CC1CCCNC1)N1N=C(c2cc(F)ccc2F)SC12CCc1ccccc12` (centres unmarked) [compound 446], the EC50 lay within 500 to 1000 nM. Consider `O=C(Cc1cccnc1)N1N=C(c2cc(F)ccc2F)SC12CCc1ccccc12` (centres unmarked) [compound 450], for which the EC50 was in the range of 500 to 1000 nM. Turning to `NCCC(=O)N1N=C(c2cc(F)ccc2F)SC12CCc1ccccc12` (centres unmarked) [compound 442], the EC50 was at most 500 nM. On to `O=C(CC1CNC1)N1N=C(c2cc(F)ccc2F)SC12CCOc1ccccc12` (centres unmarked) [compound 491], for which the EC50 lay within 500 to 1000 nM. On the same count and under the same terms, for `N[C@@H]1CC[C@H](C(=O)N2N=C(c3cc(F)ccc3F)SC23CCOc2ccccc23)C1` (some centres unmarked) [compound 477] the value was over 500 nM; for `O=C1CCCN1CCCC(=O)N1N=C(c2cc(F)ccc2F)SC12CCOc1ccccc12` (centres unmarked) [compound 493], over 500 nM. Turning to `O=C(C1CCCNC1)N1N=C(c2cc(F)ccc2F)SC12CCCc1ccccc12` (centres unmarked) [compound 416], the EC50 is over 1000 nM.

On to `O=C(Cc1ccncc1)N1N=C(c2cc(F)ccc2F)SC12CCOc1ccccc12` (centres unmarked) [compound 485], for which the EC50 is at most 500 nM.

For `N[C@H]1CC[C@@H](C(=O)N2N=C(c3cc(F)ccc3F)SC23CCOc2ccccc23)CC1` (some centres unmarked) [compound 481], the EC50 is over 500 nM. Regarding `N[C@H](C(=O)N1N=C(c2cc(F)ccc2F)SC12CCCc1ccccc12)C1CC1` (some centres unmarked) [compound 418], the EC50 was over 1000 nM.

Regarding `CC(C)[C@H](O)C(=O)N1N=C(c2cc(F)ccc2F)SC12CCCc1sccc12` (some centres unmarked) [compound 409], the EC50 is over 1000 nM.

The same assay, now with this note: Homo sapiens, HCT-116, 16 h, Table 601; HCT116 cells, 16 hours with drug; read-out: EC50 (nM) Range.
For `CN(C)C(=O)N1N=C(c2cc(F)ccc2F)SC12CCCc1sccc12` (centres unmarked) [compound 603], the EC50 is over 1000 nM.

The assay is the same for the next values; noted with them: Homo sapiens, HCT-116, 16 h, Table 701; HCT116 cells, 16 hours with drug; read-out: EC50 (nM) Range.
Consider `COCCN1N=C(c2cc(F)ccc2F)SC12CCOc1ccccc12` (centres unmarked) [compound 704], for which the EC50 was over 1000 nM.

Still in this assay, the particulars now being: Homo sapiens, HCT-116, 16 h, Table 801; HCT116 cells, 16 hours with drug; read-out: EC50 (nM) Range.
As for `CC(=O)N1N=C(c2cc(F)ccc2F)S[C@]12c1ccccc1OC[C@H]2CCN` [compound 817], the EC50 was at most 500 nM. `CC(=O)N1N=C(c2cc(F)ccc2F)S[C@@]12c1cc(F)c(F)cc1OC[C@H]2CCN` [compound 807]: the EC50 was at most 500 nM.

With `CC(=O)N1N=C(c2cc(F)ccc2F)S[C@]12c1cc(F)c(F)cc1OC[C@@H]2CCN` [compound 808], the EC50 is over 1000 nM.

The same assay, now with this note: Homo sapiens, HCT-116, 16 h, Table 1201 (Example 1201); HCT116 cells, 16 hours with drug; read-out: EC50 (nM) Range.
In the case of `CC(=O)N1N=C(c2cc(F)ccc2F)S[C@@]12c1ccccc1OC[C@H]2CCN1CCOCC1` (single isomer, unassigned) [compound 1201], the EC50 is at most 500 nM.

Staying with this assay, now noted: Homo sapiens, HCT-116, 16 h, table of Example 901; HCT116 cells, 16 hours with drug; read-out: EC50 (nM) Range.
In the case of `CC(=O)N1N=C(c2cc(F)ccc2F)S[C@]12c1ccccc1C[C@H]2CC#N` [compound 906], the EC50 is at most 500 nM.

Regarding `CC(=O)N1N=C(c2cc(F)ccc2F)S[C@]12c1ccccc1OC[C@@H]2CC#N` [compound 905], the EC50 was over 1000 nM.

Staying with this assay, now noted: Homo sapiens, HCT-116, 16 h, table of Example 1004; HCT116 cells, 16 hours with drug; read-out: EC50 (nM) Range.
`CC(=O)N1N=C(c2cc(F)ccc2F)S[C@]12c1ccccc1OC[C@@H]2CCCN` [compound 1005]: the EC50 was over 500 nM.

The same assay, now with this note: Homo sapiens, HCT-116, 16 h, table of Example 1801 (headed Table 1201); HCT116 cells, 16 hours with drug; read-out: EC50 (nM) Range.
Turning to `CC(=O)N1N=C(c2cc(Cl)ccc2F)S[C@]12c1ccccc1OC[C@@H]2CCN` [compound 1805], the EC50 is over 1000 nM. On to `CC(=O)N1N=C(c2ccc(F)c(F)c2)S[C@@]12c1cc(F)ccc1OC[C@H]2CCN` [compound 1820], for which the EC50 is at most 500 nM. Consider `CC(=O)N1N=C(c2cccc(F)c2)S[C@@]12c1ccccc1OC[C@H]2CCN` [compound 1810], for which the EC50 is at most 500 nM.

For `CC(=O)N1N=C(c2cccc(F)c2)S[C@]12c1ccccc1OC[C@@H]2CCN` [compound 1811], the EC50 is over 1000 nM.

Take `CC(=O)N1N=C(c2ccc(F)cc2F)S[C@@]12c1cc(F)ccc1OC[C@H]2CCN` [compound 1819]: the EC50 was at most 500 nM. With `CC(=O)N1N=C(c2cc(Cl)ccc2F)S[C@@]12c1ccccc1OC[C@H]2CCN` [compound 1803], the EC50 is at most 500 nM. Turning to `CC(=O)N1N=C(c2ccccc2F)S[C@]12c1ccccc1OC[C@@H]2CCN` [compound 1804], the EC50 is over 1000 nM.

Staying with this assay, now noted: Homo sapiens, HCT-116, 16 h, table of Example 1901; HCT116 cells, 16 hours with drug; read-out: EC50 (nM) Range.
Consider `COCCOCC(=O)N1N=C(c2cc(F)ccc2F)S[C@@]12c1cc(F)cc(F)c1OC[C@H]2CCN` [compound 1911], for which the EC50 is at most 500 nM. Consider `CO[C@H](C)C(=O)N1N=C(c2cc(F)ccc2F)S[C@@]12c1cc(F)ccc1OC[C@H]2CCN` [compound 1904], for which the EC50 was at most 500 nM. On to `CO[C@@H](C)C(=O)N1N=C(c2cc(F)ccc2F)S[C@@]12c1cc(F)ccc1OC[C@H]2CCN` [compound 1902], for which the EC50 was at most 500 nM. For the molecule `COCCOCC(=O)N1N=C(c2cc(F)ccc2F)S[C@@]12c1cc(F)ccc1OC[C@H]2CCN` [compound 1906], the EC50 was at most 500 nM. The same measure, in the same setting: for `CO[C@H](C)C(=O)N1N=C(c2cc(F)ccc2F)S[C@]12c1cc(F)ccc1OC[C@@H]2CCN` [compound 1903] the value was over 1000 nM.

Staying with this assay, now noted: Homo sapiens, HCT-116, 16 h, table of Example 2001; HCT116 cells, 16 hours with drug; read-out: EC50 (nM) Range.
For the molecule `COCC(=O)N1N=C(c2cc(F)ccc2F)S[C@]12c1ccccc1OC[C@@H]2CCN` [compound 2003], the EC50 is at most 500 nM.

Staying with this assay, now noted: Homo sapiens, HCT-116, 16 h, table of Example 2201; HCT116 cells, 16 hours with drug; read-out: EC50 (nM) Range.
With `CN(C)C(=O)N1N=C(c2cc(F)ccc2F)S[C@]12c1ccccc1OC[C@@H]2CCN` [compound 2204], the EC50 is at most 500 nM.

The assay is the same for the next values; noted with them: Homo sapiens, HCT-116, 16 h, table of Example 2501; HCT116 cells, 16 hours with drug; read-out: EC50 (nM) Range.
Turning to `CC(=O)N1N=C(c2cc(F)ccc2F)S[C@@]12c1ccccc1NC[C@H]2CCO` [compound 2502], the EC50 was at most 500 nM.

The assay is the same for the next values; noted with them: Homo sapiens, HCT-116, 16 h, table of Example 2701; HCT116 cells, 16 hours with drug; read-out: EC50 (nM) Range.
For the molecule `CC(=O)N1N=C(c2cc(F)ccc2F)S[C@]12c1ccccc1NC[C@H]2CCN` [compound 2701], the EC50 is at most 500 nM.

Still in this assay, the particulars now being: Homo sapiens, HCT-116, 16 h, table of Example 2901; HCT116 cells, 16 hours with drug; read-out: EC50 (nM) Range.
`CC(=O)N1N=C(c2cc(F)ccc2F)S[C@@]12c1cc(F)ccc1NC[C@H]2CCN` [compound 2902]: the EC50 was at most 500 nM.
